# Assays:
# P-gp = P-gp (Homo sapiens, UniProt P08183); experiment: Rho123 efflux assay in A549 taxol-resistant lung cancer cells (flow cytometry)
# Procedure: A549 taxol-resistant lung cancer cells were seeded in 6 well-plates at a final concentration of 2×10^5 cells per well and cultured for 24 h at 37° C. in an atmosphere containing 5% CO2. […] Subsequently, 5 mg/mL Rho123 was added to each well and the wells were incubated for another 1 h at 37° C. At the end of the incubation, the accumulation of Rho123 was stopped by washing the cells five times with ice-cold PBS. After cell centrifugation, cell pellets were resuspended in 400 μL PBS. […] All data acquisition and analyses were performed with CellQuest (BD Biosciences, San Jose, Calif., USA) in triplicate in three independent experiments, and the results were shown as the mean of fluorescence intensity.
# A549 taxol-resistant lung cancer cells were seeded in 6 well-plates at a final concentration of 2×10^5 cells per well and cultured for 24 h at 37° C. in an atmosphere containing 5% CO2. […] All data acquisition and analyses were performed with CellQuest (BD Biosciences, San Jose, Calif., USA) in triplicate in three independent experiments, and the results were shown as the mean of fluorescence intensity.
# [1] = tested on: HCT-8 (Colon) taxol resistant cancer cells; experiment: MTT cytotoxicity assay, HCT-8 taxol resistant; type: cell-based, human
# Procedure: (§1) Cell cultures and cytotoxicity assays have been used. Celastrol was dissolved in DMSO at a final concentration of 100 mmol/L and stored at −20° C. Cytotoxicity was assessed using the 3-(4,5-dimethylthiazol-2-yl)-2,5-diphenyltetrazolium bromide assay. 4000 cells from A549 (lung), A2780 (ovary), HCT-8 (colon) and MCF-7 (breast) cancer cells were seeded on 96-well plates per well. After overnight pre-incubation, the cells were exposed to different concentrations of celastrol (0.039-100 μmol/L) or taxol for 3 days. Subsequently, 10 μL of MTT reagents was added to each well and incubated at 37° C. for 4 hours followed by the addition of 100 μL solubilization buffer (10% SDS in 0.01 mol/L HCl) and overnight incubation. Absorbance at 585 nm was determined from each well the next day. The percentage of cell viability was calculated using the following formula: Cell viability (%)=Cells number treated/Cells number DMSO control×100. Data were obtained from three independent experiments.
# [2] = tested on: A549 taxol-resistant lung cancer cells; experiment: Annexin V flow cytometry analysis of cell death; type: cell-based, human; details: 24 h
# Procedure: Annexin V flow cytometry analysis has been carried out. Cell death and viability were measured using an Annexin V staining kit (BD Biosciences, San Jose, Calif., USA).
# Briefly, A549 taxol-resistant cancer cells were treated with 0.1-0.5 μM celastrol with or without 40 μM of taxol for 24 h. Cells were then harvested and analysed by multiparametric flow cytometry using FITC-Annexin V and propidium iodide staining (BD Biosciences, San Jose, Calif., USA) according to the manufacturer's instructions. Flow cytometry was then carried out using a FACSCalibur flow cytometer (BD Biosciences, San Jose, Calif., USA). Data acquisition and analysis was performed with CellQuest (BD Biosciences, San Jose, Calif., USA). Data were obtained from three independent experiments.
# [3] = tested on: SGC-7901 (Gastric) cisplatin sensitive cancer cells; experiment: MTT cytotoxicity assay, SGC-7901 cisplatin sensitive; type: cell-based, human; details: Homo sapiens, SGC-7901, 72 h, read-out: IC50 SGC-7901 (Gastric) (Cisplatin sensitive)
# Procedure: as §1, with “from” for “from A549 (lung),”, “A2780 cisplatin sensitive/resistant ovarian cancer cells or SGC-7901 cisplatin sensitive/resistant gastric” for “A2780 (ovary), HCT-8 (colon) and MCF-7 (breast)”, “or cisplatin” for “or taxol”, “reagents were” for “reagents was”
# [4] = tested on: A2780 (Ovary) cisplatin sensitive cancer cells; experiment: MTT cytotoxicity assay, A2780 cisplatin sensitive; type: cell-based, human; details: Homo sapiens, A2780, 72 h, read-out: IC50 A2780 (Ovary) (Cisplatin sensitive)
# Procedure: as §1, with “from” for “from A549 (lung),”, “A2780 cisplatin sensitive/resistant ovarian cancer cells or SGC-7901 cisplatin sensitive/resistant gastric” for “A2780 (ovary), HCT-8 (colon) and MCF-7 (breast)”, “or cisplatin” for “or taxol”, “reagents were” for “reagents was”
# HEK293 kidney cells = experiment: MTT cytotoxicity assay, HEK293; type: cell-based; details: Homo sapiens, HEK293, 72 h, 3 days
# Procedure: as §1, with “from HEK293” for “from A549 (lung), A2780 (ovary), HCT-8 (colon)”, “and HEK293/ABCB5 kidney cancer cells or MDA-MB-231 pcDNA and MDA-MB-231/BCRP breast” for “and MCF-7 (breast)”, “celastrol (0.1-10” for “celastrol (0.039-100”, “μmol/L)” for “μmol/L) or taxol”, “reagents were” for “reagents was”
# [5] = tested on: DLD-1 Bax-Bak+/+ colon cancer cells; experiment: MTT cytotoxicity assay, DLD-1 Bax-Bak+/+; type: cell-based; details: Homo sapiens, DLD-1, 72 h, read-out: IC50 DLD-1 Bax-Bak+/+ colon cancer cells
# Procedure: as §1, with “from HCT116 p53^+/+ or p53^−/− colon cancer cells” for “from A549 (lung), A2780 (ovary), HCT-8 (colon)”, “and DLD-1 Bax-Bak^+/+ or Bax-Bak^−/− colon” for “and MCF-7 (breast)”, “well. […]” for “well. After overnight pre-incubation, the cells were exposed to different concentrations of celastrol (0.039-100 μmol/L) or taxol for 3 days.”, “reagents were” for “reagents was”, “incubation. […]” for “incubation. Absorbance at 585 nm was determined from each well the next day.”
# [6] = tested on: A2780 (Ovary) cisplatin resistant cancer cells; experiment: MTT cytotoxicity assay, A2780 cisplatin resistant; type: cell-based, human
# Procedure: as §1, with “from” for “from A549 (lung),”, “A2780 cisplatin sensitive/resistant ovarian cancer cells or SGC-7901 cisplatin sensitive/resistant gastric” for “A2780 (ovary), HCT-8 (colon) and MCF-7 (breast)”, “or cisplatin” for “or taxol”, “reagents were” for “reagents was”
# P-gp, sequence (P08183 whole entry): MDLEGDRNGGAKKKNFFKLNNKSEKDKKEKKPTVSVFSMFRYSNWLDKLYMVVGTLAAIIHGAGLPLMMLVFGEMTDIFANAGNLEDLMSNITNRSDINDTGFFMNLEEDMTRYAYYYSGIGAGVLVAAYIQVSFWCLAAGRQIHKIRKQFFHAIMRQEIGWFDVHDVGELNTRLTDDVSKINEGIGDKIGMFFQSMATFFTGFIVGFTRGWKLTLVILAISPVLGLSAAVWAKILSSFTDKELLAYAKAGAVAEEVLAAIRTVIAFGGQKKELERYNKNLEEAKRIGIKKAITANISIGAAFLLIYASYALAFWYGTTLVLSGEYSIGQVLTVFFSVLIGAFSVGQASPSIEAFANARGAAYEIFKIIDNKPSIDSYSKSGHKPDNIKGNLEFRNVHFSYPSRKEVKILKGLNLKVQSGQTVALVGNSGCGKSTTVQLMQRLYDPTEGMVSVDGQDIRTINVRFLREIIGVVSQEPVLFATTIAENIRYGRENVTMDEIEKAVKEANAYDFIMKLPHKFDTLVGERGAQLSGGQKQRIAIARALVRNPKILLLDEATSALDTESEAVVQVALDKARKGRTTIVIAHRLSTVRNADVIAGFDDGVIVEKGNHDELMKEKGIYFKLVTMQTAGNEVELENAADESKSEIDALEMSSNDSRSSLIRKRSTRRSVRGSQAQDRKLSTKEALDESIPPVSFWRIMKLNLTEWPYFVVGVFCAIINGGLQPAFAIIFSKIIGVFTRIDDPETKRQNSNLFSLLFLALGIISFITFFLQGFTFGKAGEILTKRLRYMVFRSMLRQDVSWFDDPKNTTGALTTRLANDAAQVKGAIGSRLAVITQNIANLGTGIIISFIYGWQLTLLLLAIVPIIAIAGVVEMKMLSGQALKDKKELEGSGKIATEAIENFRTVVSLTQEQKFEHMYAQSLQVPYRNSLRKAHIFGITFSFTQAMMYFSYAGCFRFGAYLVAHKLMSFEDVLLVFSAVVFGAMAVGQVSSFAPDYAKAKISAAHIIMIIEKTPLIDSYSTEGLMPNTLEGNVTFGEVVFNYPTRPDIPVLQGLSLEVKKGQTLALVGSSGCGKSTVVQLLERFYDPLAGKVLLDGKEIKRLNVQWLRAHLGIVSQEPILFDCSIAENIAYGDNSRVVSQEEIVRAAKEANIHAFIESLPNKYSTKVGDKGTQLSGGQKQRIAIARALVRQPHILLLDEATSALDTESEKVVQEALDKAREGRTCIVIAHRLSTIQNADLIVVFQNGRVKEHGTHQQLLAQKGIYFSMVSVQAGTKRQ
structure (smiles),measurement,setting,value
"CC1=C(O)C(=O)C=C2C1=CC=C1[C@@]2(C)CC[C@@]2(C)[C@@H]3C[C@](C)(C(=O)O)CC[C@]3(C)CC[C@]12C [Celastrol, celastrol]",P-gp activity / Rho123 accumulation (Example 2),P-gp,inhibited the P-gp activity dose-dependently
same,P-gp activity / Rho123 accumulation (Example 9),P-gp,inhibited the P-gp activity dose-dependently
same,Resistant Factor,[1]; HCT-8 taxol resistant versus taxol sensitive,0.59
same,IC50,"[1]; Homo sapiens, HCT-8, 72 h, read-out: IC50 HCT-8 (Colon) (Taxol resistant)",553 nM
same,"cytotoxicity (cell death, Annexin V)",[2]; 0.1-0.5 μM celastrol alone,limited cytotoxicity
same,"taxol-mediated cytotoxicity (cell death, Annexin V) on co-treatment",[2]; 0.1-0.5 μM celastrol with 40 μM taxol,significantly enhanced
same,IC50,[3],1940 nM
same,IC50,[4],525 nM
same,IC50,HEK293 kidney cells,3080 nM
same,IC50,[5],575 nM
same,Resistant Factor,[6]; A2780 cisplatin resistant versus cisplatin sensitive,1.03
same,IC50,"[6]; Homo sapiens, A2780, 72 h, read-out: IC50 A2780 (Ovary) (Cisplatin resistant)",543 nM
